Measured values from patent US20200079765A1, “SUBSTITUTED HETEROARYL PYRROLONES AND SALTS THEREOF AND USE THEREOF AS HERBICIDAL ACTIVE SUBSTANCES” (Bayer CropScience Aktiengesellschaft, priority 2016, published 2020).

Columns and labels:
[1] = target: T1, photosystem II (PS II) (Spinacia oleracea, UniProt P69560); assay: Measurement of the PS II activity in thylakoid membranes (DCPIP reduction, Experimental Part 3, Table E1); type: biochemical; details: spinach thylakoid membranes
T1 construct: the chloroplasts were osmotically ruptured and the thylakoid membranes were then obtained by centrifugation; from tissue; host or cells: thylakoid membranes from fresh spinach leaves
Method: Cooled fresh spinach leaves were comminuted and homogenized in 50 mM phosphate buffer, pH 6.8. 10 mM KCl, 0.34 M sucrose (sucrose buffer) (blender, 1 g of plant material/ml). The homogenate was subsequently filtered through 4 layers of Miracloth and the chloroplasts were isolated by centrifugation, i.e. 10 min of centrifugation at 4400×g (4° C.). The sediment was suspended in 25 ml of sucrose buffer and re-centrifuged for 10 min at 4400×g (4° C.). The sediment was then suspended in 40 ml of 50 mM phosphate buffer, pH 6.8, 10 mM KCl, without sucrose. In this step, the chloroplasts were osmotically ruptured and the thylakoid membranes were then obtained by centrifugation (10 min, 4400×g, 4° C.). The membrane sediment was finally suspended in about 20 ml of 50 mM phosphate buffer, pH 6.8, 10 mM KCl. Following protein determination and activity determination, the membrane suspension was divided into aliquots and frozen in liquid nitrogen. The aliquots were stored at −80° C. Under these conditions, the photosystem II preparation was storage stable for at least three months. The activity determination of photosystem II (PS II) was then carried out using the following test principle: The electron transfer from PS II to an artificial electron acceptor, 2,6-dichlorophenolindophenol (DCPIP), was measured with exposure to light. The concentration of the blue oxidized form of DCPIP was determined spectrophotometrically at wavelength λ=595 nm. […] The activity determination was carried out in microtiter plates (96 cavities) in a reaction volume of 200 μl. Here, 155 μl of dilute membrane suspension were initially charged in 50 mM of phosphate buffer, pH 6.8, 10 mM KCl. Depending on the activity of the PS II preparation, the dilution was adjusted such that the measurement of the decrease in absorption (λ=595 nm) was linear for at least 10 min. In each case 5 μl solution of the test compounds of a concentration of 100 μM in DMSO were added to the enzyme suspension; controls contained 5 μl DMSO; the final concentration of DMSO in the reaction batch was thus 2.5% (v/v); this concentration had no adverse effect on the enzymatic activity. On each microtiter plate, a known PS II inhibitor, for example metribuzin, was used as standard, which allowed the quality of the PS II test to be assessed. The reaction was started by addition of 40 μl DCPIP solution (600 μM in distilled water); the final concentration of DCPIP was 120 μM. Measurement of absorption was carried out over a period of 10 min at 22° C. and with exposure to light. Using metribuzin as comparative substance, the results for the efficacy of the compounds of the general formula (I) at 100 μM are stated in the table below using the following classification: ++++ (inhibition≥90%), +++ (90%>inhibition≥70%), ++ (70%>inhibition≥50%), + (50%>inhibition≥30%).
Effects of selected compounds of the general formula (I) according to the following table E1: […]

[2] = system: Amaranthus retroflexus; assay: Herbicidal post-emergence action (Experimental Part 2, C); type: in vivo; details: post-emergence (Part 2), application rate 320 g/ha, rated visually after about 3 weeks
Method: (§1) Seeds of mono- and dicotyledonous weed plants were placed in plastic pots in sandy loam soil (doubly sown with in each case one species of mono- or dicotyledonous weed plants per pot), covered with soil and cultivated in a greenhouse under controlled growth conditions. 2 to 3 weeks after sowing, the test plants were treated at the one-leaf stage. The compounds of the invention, formulated in the form of wettable powders (WP) or as emulsion concentrates (EC), were applied onto the green parts of the plants as aqueous suspension or emulsion with addition of 0.5% additive at a water application rate of 600 liters per hectare (converted). After the test plants had been kept in the greenhouse under optimum growth conditions for about 3 weeks, the activity of the preparations was rated visually in comparison to untreated controls. For example, 100% activity=the plants have died, 0% activity=like control plants. Tables C1 to C8 below show the effects of selected compounds of the general formula (I) according to Tables I.1 to I.116 on various harmful plants and an application rate corresponding to 1280 g/ha or 320 g/ha, which were obtained by the experimental procedure mentioned above.

[3] = system: Matricaria inodora; assay: as above; type: in vivo; details: post-emergence (Part 2), application rate 1280 g/ha, rated visually after about 3 weeks
Method: as §1

[4] = system: Amaranthus retroflexus; assay: Herbicidal pre-emergence action (Experimental Part 2, D); type: in vivo; details: pre-emergence (Part 2), scored visually after about 3 weeks
From the text: (§2) Seeds of mono- and dicotyledonous weed plants were placed in plastic pots in sandy loam soil (doubly sown with in each case one species of mono- or dicotyledonous weed plants per pot) and covered with soil. The compounds of the invention, formulated in the form of wettable powders (WP) or as emulsion concentrates (EC), were then applied onto the surface of the covering soil as aqueous suspension or emulsion with addition of 0.5% additive at a water application rate of 600 liters per hectare (converted). After the treatment, the pots are placed in a greenhouse and kept under good growth conditions for the trial plants. After about 3 weeks, the effect of the preparations was scored visually in comparison with untreated controls as percentages. For example, 100% activity=the plants have died, 0% activity=like control plants. Tables D1 to D8 below show the effects of selected compounds of the general formula (I) according to Tables I.1 to I.116 on various harmful plants and an application rate corresponding to 1280 g/ha or 320 g/ha, which were obtained by the experimental procedure mentioned above.

[5] = system: Stellaria media; assay: as above; type: in vivo; details: pre-emergence (Part 2), scored visually after about 3 weeks
From the text: as §2

[6] = system: Setaria viridis; assay: Herbicidal post-emergence action (Experimental Part 2, C); type: in vivo; details: post-emergence (Part 2), application rate 1280 g/ha, rated visually after about 3 weeks
Method: as §1

[7] = system: Abutilon theophrasti; assay: as above; type: in vivo; details: post-emergence (Part 2), rated visually after about 3 weeks
Method: as §1

[8] = system: Stellaria media; assay: as above; type: in vivo; details: post-emergence (Part 2), application rate 1280 g/ha, rated visually after about 3 weeks
Method: as §1

[9] = system: Abutilon theophrasti; assay: Herbicidal pre-emergence action (Experimental Part 2, D); type: in vivo; details: pre-emergence (Part 2), application rate 1280 g/ha, scored visually after about 3 weeks
From the text: as §2

[10] = system: Matricaria inodora; assay: as above; type: in vivo; details: pre-emergence (Part 2), scored visually after about 3 weeks
From the text: as §2

[11] = system: Setaria viridis; assay: as above; type: in vivo; details: pre-emergence (Part 2), application rate 1280 g/ha, scored visually after about 3 weeks
From the text: as §2

[12] = system: Poa annua; assay: as above; type: in vivo; details: pre-emergence (Part 2), scored visually after about 3 weeks
From the text: as §2

Row | SMILES | Effect (inhibition of PS II activity) [1] | Amaranthus retroflexus, herbicidal activity [2] | Matricaria inodora, herbicidal activity [3] | Amaranthus retroflexus, herbicidal activity ([4]; application rate 1280 g/ha) | Abutilon theophrasti, herbicidal activity [9] | also measured
1 | CC1=CC(=O)N(c2cc(C)ns2)C1O (centres unmarked) [I.1-72] | ++++ (inhibition≥90%) | 100% | 100% | 90% | – | Stellaria media, herbicidal activity ([5]; application rate 1280 g/ha): 90%
2 | CC1=CC(=O)N(c2cc(-c3ccccc3)ns2)C1O (centres unmarked) [I.1-86] | ++++ (inhibition≥90%) | – | – | – | – | –
3 | CC1=CC(=O)N(c2cscn2)C1O (centres unmarked) [I.1-91] | – | 100% | 100% | – | 100% | Setaria viridis, herbicidal activity [6]: 100%; Abutilon theophrasti, herbicidal activity ([7]; application rate 1280 g/ha): 100%; Stellaria media, herbicidal activity [8]: 100%; Amaranthus retroflexus, herbicidal activity ([4]; application rate 320 g/ha): 100%; Matricaria inodora, herbicidal activity ([10]; application rate 1280 g/ha): 90%
4 | CC1=CC(=O)N(c2cc(C(C)C)no2)C1O (centres unmarked) [I.1-289] | – | 100% | 100% | 90% | 100% | Abutilon theophrasti, herbicidal activity ([7]; application rate 1280 g/ha): 100%; Setaria viridis, herbicidal activity [11]: 90%; Stellaria media, herbicidal activity ([5]; application rate 1280 g/ha): 100%; Poa Annua, herbicidal activity ([12]; application rate 1280 g/ha): 100%; Matricaria inodora, herbicidal activity ([10]; application rate 1280 g/ha): 100%
5 | CC1=CC(=O)N(c2cc(C(C)(C)C)no2)C1O (centres unmarked) [I.1-290, 5-Hydroxy-4-methyl-1-(3-tert-butyl-1,2-isoxazol-5-yl)-1,5-dihydro-2H-pyrrol-2-one] | ++++ (inhibition≥90%) | – | 100% | 100% | 90% | Abutilon theophrasti, herbicidal activity ([7]; application rate 320 g/ha): 100%; Stellaria media, herbicidal activity [8]: 100%; Setaria viridis, herbicidal activity [11]: 90%; Stellaria media, herbicidal activity ([5]; application rate 320 g/ha): 100%; Poa Annua, herbicidal activity ([12]; application rate 320 g/ha): 90%; Matricaria inodora, herbicidal activity ([10]; application rate 320 g/ha): 100%
6 | CC1=CC(=O)N(c2cc(C(C)(C)C)n(C)n2)C1O (centres unmarked) [I.1-315] | ++++ (inhibition≥90%) | – | – | – | – | –
7 | CC1=CC(=O)N(c2cc(C(F)(F)F)ccn2)C1O (centres unmarked) [I.1-449] | ++++ (inhibition≥90%) | – | – | – | – | –
